Test results as given in publication PMC6009895, “Screening assay for inhibitors of a recombinant Streptococcus pneumoniae UDP-glucose pyrophosphorylase” (Journal of Enzyme Inhibition and Medicinal Chemistry, 2017).

Target: T1, His6GalUSpn (UDP-glucose pyrophosphorylase, UDPG:PP, GalU) (Streptococcus pneumoniae, UniProt O86882)
T1 construct: complete galU gene amplified from plasmid pMMG2 into pET28a (NheI/BamHI; pETgalU), His6 tag before the protein, tag cut not mentioned; E. coli BL21(DE3), IMAC
Experiment: malachite green Pi assay coupled to inorganic pyrophosphatase
Format: biochemical
Conditions: 30 min preincubation at 37 °C with 7.5 mM compound; 7.5 mM UTP, 7.5 mM Glc-1P, 5 mM MgCl2, MOPS pH 8.0, 37 °C

T1 sequence (O86882 entry or part of it): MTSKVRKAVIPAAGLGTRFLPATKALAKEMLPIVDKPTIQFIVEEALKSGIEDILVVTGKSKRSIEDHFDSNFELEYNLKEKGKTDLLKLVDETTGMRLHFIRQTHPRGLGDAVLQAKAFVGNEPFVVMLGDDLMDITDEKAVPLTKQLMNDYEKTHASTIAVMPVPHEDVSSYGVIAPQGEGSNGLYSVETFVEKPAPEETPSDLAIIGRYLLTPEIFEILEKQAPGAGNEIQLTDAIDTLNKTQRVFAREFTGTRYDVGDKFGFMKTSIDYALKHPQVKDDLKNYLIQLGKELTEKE

| Compound | % inhibition at 7.5 mM |
| --- | --- |
| Nc1nc(NC2CC2)c2ncn([C@H]3C=C[C@@H](CO)C3)c2n1 [abacavir] | inhibit S. pneumoniae UDP-glucose pyrophosphorylase, including compounds containing a purine base in their structure |
| Cc1cn([C@H]2C=C[C@@H](CO)O2)c(=O)[nH]c1=O [stavudine] | nucleoside analogs: abacavir, decitabine stavudine and zidovudine |
| Cc1cn([C@H]2C[C@H](N=[N+]=[N-])[C@@H](CO)O2)c(=O)[nH]c1=O [zidovudine] | nucleoside analogs: abacavir, decitabine stavudine and zidovudine |
